Non-standard residues stand in square brackets, D forms with d. Residues, ends and D or L forms follow the SMILES beside them.
What was measured:
human erythrocytes [1] = assay: Hemolytic activity (HC50); type: cell-based; settings: 18 hours at 37 °C; human red blood cells; Figure 8, 100% control 0.1% Triton-X 100
Description: Hemoglobin release was determined spectrophotometrically at 570 nm.
From these plots, the HC50 values, the peptide concentration that produces 50% hemolysis of human red blood cells after 18 hours in the standard microtiter dilution method was determined.

human erythrocytes [2] = assay: Hemolytic activity (HC50); type: cell-based; settings: 1 hour incubation at 37 °C; human red blood cells; Figure 8, 100% control 0.1% Triton-X 100

Q: What does the source list for `CC[C@@H](C)[C@@H](NC(=O)[C@H]1CCCN1C(=O)[C@@H](CCCNC(=N)N)NC(=O)[C@@H](Cc1ccccc1)NC(=O)[C@H](NC(=O)[C@@H](Cc1c[nH]cn1)NC(=O)[C@@H](Cc1c[nH]cn1)NC(=O)[C@@H](Cc1ccccc1)NC(=O)[C@H](N)Cc1ccccc1)[C@H](C)CC)C(=O)N[C@@H](C(=O)N[C@H](Cc1c[nH]cn1)C(=O)N[C@@H](C(=O)NCC(=O)N[C@H](CCCCN)C(=O)N[C@@H](C(=O)N[C@@H](C(=O)N[C@H](Cc1c[nH]cn1)C(=O)N[C@H](CCCNC(=N)N)C(=O)N[C@H](CC(C)C)C(=O)N[C@@H](C(=O)N[C@@H](C(=O)NCC(N)=O)[C@H](C)O)C(C)C)[C@H](C)CC)[C@H](C)O)C(C)C)C(C)C` [D-Piscidin 1 G8P] (H-[dF][dF][dH][dH][dI][dF][dR][dP][dI][dV][dH][dV]G[dK][dT][dI][dH][dR][dL][dV][dT]G-NH2)?
A: Hemolytic activity HC50, 18 hours (Figure 8 comparison) (human erythrocytes [1]): 8 µM; Hemolytic activity HC50, 1 hour (human erythrocytes [2]): 55 µM
